Patent US8476306B2, “Urokinase inhibitors, production and use thereof” (The Medicines Company (Leipzig) GmbH, priority 2002, dated 2013)
Counter-ions that a name gives are not always drawn.

Key:
thrombin = thrombin (Homo sapiens (Human), UniProt P00734); test: Inhibition constants for thrombin, determined in analogy to uPA; assay type: biochemical
plasmin = plasmin (Homo sapiens (Human), UniProt P00747); test: Inhibition constants for plasmin, determined in analogy to uPA; assay type: biochemical
trypsin [1] = test: Inhibition constants for trypsin, determined in analogy to uPA; assay type: biochemical
uPA = uPA (Homo sapiens (Human), UniProt P00749); test: Inhibition constants for uPA, determined as in Stürzebecher et al. 1997; assay type: biochemical
[2] = Elimination (β phase) half-life in rats after intravenous administration, plasma levels by HPLC; settings: for elimination (β phase) half-life t1/2: rats, intravenous administration 1 mg/kg; for half-life: female, Wistar, rat, plasma, iv, 1 mg/kg
Protocol: Female Wistar rats (240-300 g body weight) were anesthetized (ethylurethane, 2.5 g/ml in NaCl, 0.5 ml/100 g rat), after which the A. carotis located in the neck was exposed. A catheter inserted into this vessel enabled blood to be removed at specified times. The volume administered was 0.5 ml, while 0.9% NaCl was used as the administration solution. […] The resultant loss of blood was offset, immediately after removal of the sample, with 500 μl of 0.9% NaCl solution. Citrate plasma was obtained by centrifuging the blood at 1200×g for 10 min.

[3] = after s.c. administration; following acylation of the D-Ser hydroxyl; cited from earlier work
trypsin [4] = biological target: trypsin (Bos taurus, UniProt P00760); test: Inhibition constants for trypsin, determined in analogy to uPA; assay type: biochemical
sc urokinase = sc urokinase (Homo sapiens (Human), UniProt P00749); test: Inhibiting urokinase with 4-amidinobenzylamide compounds (chromogenic substrate Bzl-βAla-Gly-Arg-pNA, Dixon Ki); assay type: biochemical; settings: 25° C., pH 8.0, means of at least three determinations
Excerpt: Determining the Inhibitory Effect
The Ki values are the means of at least three determinations.

[5] = tested on: lacZ-labeled human fibrosarcoma cell line (HT1080 AN PKZ12 K15-1); test: Inhibiting metastasis in an animal model (lung metastases, lacZ-labeled human fibrosarcoma cells i.v.); assay type: in vivo, mice (strain CD1 nu/nu); settings: mice, 2 i.p. doses of 1.5 mg/kg daily from day −1 to day 21, lungs evaluated on day 22
Protocol: The influence of the inhibitor benzylsulfonyl-dSer-Ser-4-amidinobenzylamide on metastasis was investigated in female mice (strain CD1 nu/nu, approx. 25 g body weight, Charles River, Sulzfeld). […] from a lacZ-labeled human fibrosarcoma cell line (HT1080 AN PKZ12 K15-1, dissolved in 200 μl of PBS) were administered to the mice i.v. (Krüger et al., Cancer Metastasis Rev. 1998-99, 17, 285-294 and Krüger et al., Oncogene 1998, 16, 2419-2423). The mice in the treated group (n=17) were given 2 i.p. doses (in each case 1.5 mg/kg) of the inhibitor daily from day −1 (one day before the tumor cell inoculation) through to the 21st day (a total of 23 days). The mice in the control group (n=10) were correspondingly given 200 μl of pyrogen-free water containing 5% (v/v) ethanol. On day 22, the mice were sacrificed and the lungs were fixed in 2% formalin and 0.2% glutaraldehyde; after that, the lungs were stained with X-Gal (5-Br-4-Cl-3-indolyl-β-D-galactoside) and the number of lung metastases was determined.

Chain of plasmin (P00747 581-810, species assumed): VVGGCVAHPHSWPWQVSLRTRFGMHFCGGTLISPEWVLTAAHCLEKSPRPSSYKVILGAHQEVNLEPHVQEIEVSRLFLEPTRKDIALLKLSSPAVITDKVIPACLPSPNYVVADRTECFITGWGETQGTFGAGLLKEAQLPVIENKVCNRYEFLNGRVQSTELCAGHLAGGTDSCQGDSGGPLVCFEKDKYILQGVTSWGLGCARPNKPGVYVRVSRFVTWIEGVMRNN
Chain of plasmin (P00747 97-580 partner, species assumed): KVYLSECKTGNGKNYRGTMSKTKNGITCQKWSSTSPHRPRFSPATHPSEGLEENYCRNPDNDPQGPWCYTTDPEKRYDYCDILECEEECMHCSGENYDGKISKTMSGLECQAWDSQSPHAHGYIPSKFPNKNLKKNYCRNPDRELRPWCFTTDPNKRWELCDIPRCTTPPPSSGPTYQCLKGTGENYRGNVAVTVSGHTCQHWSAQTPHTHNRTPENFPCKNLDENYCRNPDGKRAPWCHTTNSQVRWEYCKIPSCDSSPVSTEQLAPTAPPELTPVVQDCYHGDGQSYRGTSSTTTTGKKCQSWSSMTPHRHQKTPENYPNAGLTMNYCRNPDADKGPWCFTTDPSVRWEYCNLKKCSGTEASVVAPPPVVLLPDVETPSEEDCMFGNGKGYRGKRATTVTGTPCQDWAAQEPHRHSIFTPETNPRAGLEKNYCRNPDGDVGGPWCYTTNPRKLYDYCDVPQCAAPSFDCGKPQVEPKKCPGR
Chain of trypsin (P00760 24-246 limits assumed): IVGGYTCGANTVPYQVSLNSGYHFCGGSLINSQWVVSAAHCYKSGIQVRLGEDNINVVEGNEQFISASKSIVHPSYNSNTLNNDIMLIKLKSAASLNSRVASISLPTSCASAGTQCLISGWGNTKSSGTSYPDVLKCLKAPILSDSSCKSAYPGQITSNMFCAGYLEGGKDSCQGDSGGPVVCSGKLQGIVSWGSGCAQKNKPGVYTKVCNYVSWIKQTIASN
Chain of trypsin (Bos taurus, UniProt P00760) (P00760 24-246 limits assumed): as above

Compound	Ki (thrombin) [nM]	Ki (plasmin) [nM]	Ki (trypsin [1]) [nM]	Ki (uPA) [nM]	elimination (β phase) half-life t1/2 [2] [min]	half-life [2] [min]	Ki (trypsin [4]) [nM]	Ki (sc urokinase) [nM]	relative bioavailability [3] [%]	number of lung metastases as compared with the control group (100%) [5] [%]
CC(C)COC(=O)N[C@H](CO)C(=O)N[C@@H](C)C(=O)N[C@H](C=O)CCCNC(=N)N [iBuOCO-D-Ser-Ala-Arg-H]	–	–	–	–	–	–	–	–	87	–
N=C(N)c1ccc(CNC(=O)CNC(=O)[C@@H](CN)NS(=O)(=O)Cc2ccccc2)cc1 [Example 11, Benzylsulfonyl-dDap-Gly-4-Amba]	10000	9600	180	180	–	–	–	–	–	–
N=C(N)c1ccc(CNC(=O)CNC(=O)[C@@H](CO)NS(=O)(=O)Cc2cccc(C(=O)O)c2)cc1.O=C(O)C(F)(F)F [R=3-COOH, X=CH, R1=H, 3-(HOOC)Benzylsulfonyl-dSer-Gly-4-amidinobenzylamide×TFA]	150000	59000	–	160	–	78	–	–	–	–
COC(=O)c1ccc(CS(=O)(=O)N[C@H](CO)C(=O)NCC(=O)NCc2ccc(C(=N)N)cc2)cc1 [R=4-COOMe, X=CH, R1=H]	9400	17000	180	620	–	–	–	–	–	–
COC(=O)c1cccc(CS(=O)(=O)N[C@H](CO)C(=O)NCC(=O)NCc2ccc(C(=N)N)cc2)c1 [R=3-COOMe, X=CH, R1=H]	42000	28000	290	120	–	–	–	–	–	–
N=C(N)c1ccc(CNC(=O)[C@H](CC(=O)O)NC(=O)[C@@H](CO)NS(=O)(=O)Cc2ccccc2)cc1	–	–	–	–	–	–	–	860	–	–
N=C(N)c1ccc(CNC(=O)[C@H](CO)NC(=O)[C@@H](CO)NS(=O)(=O)Cc2cccc(C(=O)O)c2)cc1 [R=3-COOH, X=CH, R1=CH2—OH]	200000	4200	58	75	25.8	–	–	–	–	–
N=C(N)c1ccc(CNC(=O)[C@H](CO)NC(=O)[C@@H](CO)NS(=O)(=O)Cc2ccccc2)cc1 [R=H, X=CH, R1=CH2—OH, Benzylsulfonyl-dSer-Ser-4-amidinobenzylamide×TFA]	14000	750	–	25	–	30	–	–	–	4.6
N=C(N)c1ccc(CNC(=O)CNC(=O)[C@@H](CO)NS(=O)(=O)Cc2ccc(C(=O)O)cc2)cc1 [R=4-COOH, X=CH, R1=H]	170000	35000	480	150	120	–	–	–	–	–
N=C(N)c1ccc(CNC(=O)[C@H](CCC(=O)O)NC(=O)[C@@H](CO)NS(=O)(=O)Cc2ccccc2)cc1 [Benzylsulfonyl-D-Ser-Glu-4-amidinobenzylamide×TFA]	–	–	–	–	–	–	–	160	–	–
N=C(N)c1ccc(CNC(=O)[C@H](CO)NC(=O)[C@@H](CO)NS(=O)(=O)Cc2ccc(C(=O)O)cc2)cc1 [R=4-COOH, X=CH, R1=CH2—OH]	120000	6200	100	230	25.8	–	–	–	–	–
N=C(N)c1ccc(CNC(=O)CNC(=O)[C@@H](CO)NS(=O)(=O)Cc2ccccc2C(=O)O)cc1 [R=2-COOH, X=CH, R1=H]	56000	220000	2400	370	–	–	–	–	–	–
N=C(N)c1ccc(CNC(=O)CNC(=O)[C@@H](CO)NS(=O)(=O)Cc2ccc(CC(=O)O)cc2)cc1 [Example 13, 4(HOOC—CH2)Benzylsulfonyl-dSer-Gly-4-Amba]	60000	27000	300	130	–	–	–	–	–	–
N=C(N)c1ccc(CNC(=O)CNC(=O)[C@@H](CO)NS(=O)(=O)Cc2ccccc2)cc1 [R=H, X=CH, R1=H, Benzylsulfonyl-D-Ser-Gly-4-amidinobenzylamide]	13000	11000	150	–	17.4	–	–	–	–	–

The next lines start with results.

Ki (thrombin) [nM]	Ki (plasmin) [nM]	Ki (trypsin [1]) [nM]	Ki (uPA) [nM]	elimination (β phase) half-life t1/2 [2] [min]	half-life [2] [min]	Ki (trypsin [4]) [nM]	Ki (sc urokinase) [nM]	Compound	relative bioavailability [3] [%]	number of lung metastases as compared with the control group (100%) [5] [%]
8300	4700	21	30	25.2	–	–	–	C[C@H](NC(=O)[C@@H](CO)NS(=O)(=O)Cc1cccc(C(=O)O)c1)C(=O)NCc1ccc(C(=N)N)cc1 [R=3-COOH, X=CH, R1=CH3]	–	–
1400	530	–	42	–	52.8	–	–	N=C(N)c1ccc(CNC(=O)[C@H](CCCCNC(=O)COCC(=O)NCCOCCOCCOCCOCCOCCOCCOCCN)NC(=O)[C@@H](CO)NS(=O)(=O)Cc2ccccc2)cc1 [Example 10, Bzls-dSer-Lys(CO—CH2—O—CH2—CO—NH—CH2—CH2-Hexaethylene-glycol-CH2—CH2—NH2)-4-amidinobenzylamide×2 TFA]	–	–
1700	730	–	95	–	–	34	–	Benzylsulfonyl-dSer-Lys(CO—O-PEG5000-OMe)-4-amidinobenzylamide×Acetate [Example 9]	–	–
2300	3000	13	38	39.6	–	–	–	C[C@H](NC(=O)[C@@H](CO)NS(=O)(=O)Cc1ccc(C(=O)O)cc1)C(=O)NCc1ccc(C(=N)N)cc1 [R=4-COOH, X=CH, R1=CH3]	–	–
4300	360	–	–	–	42	–	–	N=C(N)c1ccc(CNC(=O)[C@H](CCCCN)NC(=O)[C@@H](CO)NS(=O)(=O)Cc2ccccc2)cc1 [X=Lys, Benzylsulfonyl-dSer-Lys-4-amidinobenzylamide×2 TFA]	–	–
4200	960	20	230	–	–	–	–	COC(=O)c1ccc(CS(=O)(=O)N[C@H](CO)C(=O)N[C@@H](CO)C(=O)NCc2ccc(C(=N)N)cc2)cc1 [R=4-COOMe, X=CH, R1=CH2—OH]	–	–
4000	1400	30	110	–	–	–	–	CC(O)[C@H](NC(=O)[C@@H](CO)NS(=O)(=O)Cc1ccccc1)C(=O)NCc1ccc(C(=N)N)cc1 (stereo partly drawn) [R=H, X=CH, R1=CH(OH)CH3]	–	–
4700	200	–	–	–	36	–	–	N=C(N)c1ccc(CNC(=O)[C@H](CCCN=C(N)N)NC(=O)[C@@H](CO)NS(=O)(=O)Cc2ccccc2)cc1 [X=Arg, Benzylsulfonyl-dSer-Arg-4-amidinobenzylamide×2 TFA]	–	–
7900	32000	350	32	–	–	–	–	N=C(N)c1ccc(CNC(=O)CNC(=O)[C@@H](CO)NS(=O)(=O)Cc2ccc(Cl)cc2)cc1 [R=4-Cl, X=CH, R1=H]	–	–
7900	20000	110	31	–	–	–	–	N=C(N)c1ccc(CNC(=O)CNC(=O)[C@@H](CO)NS(=O)(=O)Cc2ccc(F)cc2)cc1 [R=4-F, X=CH, R1=H]	–	–
780	810	21	36	24	–	–	–	N=C(N)c1ccc(CNC(=O)[C@H](CN)NC(=O)[C@@H](CO)NS(=O)(=O)Cc2ccccc2)cc1 [R=H, X=CH, R1=CH2—NH2]	–	–
4000	38000	400	83	–	–	–	–	COC(=O)c1ccccc1CS(=O)(=O)N[C@H](CO)C(=O)NCC(=O)NCc1ccc(C(=N)N)cc1 [R=2-COOMe, X=CH, R1=H]	–	–
8000	7400	–	–	–	–	–	–	N=C(N)c1ccc(CNC(=O)CNC(=O)[C@@H](CO)NS(=O)(=O)Cc2ccc(CN)cc2)cc1 [R=4-(NH2—CH2), X=CH, R1=H, 4-(Aminomethyl)benzylsulfonyl-dSer-Gly-4-amidinobenzylamide×2 TFA]	–	–
8500	400	25	110	–	–	–	–	N=C(N)c1ccc(CNC(=O)[C@H](Cc2cnc[nH]2)NC(=O)[C@@H](CO)NS(=O)(=O)Cc2ccccc2)cc1 [Example 12, Benzylsulfonyl-dSer-His-4-Amba]	–	–
480	270	6.8	28	–	–	–	–	N=C(N)c1ccc(CNC(=O)[C@H](COCc2ccccc2)NC(=O)[C@@H](CO)NS(=O)(=O)Cc2ccccc2)cc1 [R=H, X=CH, R1=CH2—O(Bzl)]	–	–
8500	27000	340	89	–	–	–	–	N#Cc1ccc(CS(=O)(=O)N[C@H](CO)C(=O)NCC(=O)NCc2ccc(C(=N)N)cc2)cc1 [R=4-CN, X=CH, R1=CH]	–	–
8000	18000	210	58	–	–	–	–	Cc1ccc(CS(=O)(=O)N[C@H](CO)C(=O)NCC(=O)NCc2ccc(C(=N)N)cc2)cc1 [R=4-Me, X=CH, R1=H]	–	–
100	1100	11	61	–	–	–	–	CC(OCc1ccccc1)[C@H](NC(=O)[C@@H](CO)NS(=O)(=O)Cc1ccccc1)C(=O)NCc1ccc(C(=N)N)cc1 (stereo partly drawn) [R=H, X=CH, R1=CH(OBzl)CH3]	–	–
8300	32000	600	110	–	–	–	–	N=C(N)c1ccc(CNC(=O)CNC(=O)[C@@H](CO)NS(=O)(=O)Cc2ccc(Cl)c(Cl)c2)cc1 [R=3,4-di-Cl, X=CH, R1=H]	–	–
